The source of these data is US9643967B2, “Pyrrolo[3,2-c]pyridine derivatives as TLR inhibitors” (TAKEDA PHARMACEUTICAL COMPANY LIMITED, priority 2013, dated 2017).

This assay deals with T1, mTLR7 (Mus musculus, UniProt P58681).
T1 construct: Splenocytes isolated from male C57/BL6 mice; from tissue; host or cells: splenocytes from the spleen of male C57BL/6 mice
T1 sequence (P58681 27-1050): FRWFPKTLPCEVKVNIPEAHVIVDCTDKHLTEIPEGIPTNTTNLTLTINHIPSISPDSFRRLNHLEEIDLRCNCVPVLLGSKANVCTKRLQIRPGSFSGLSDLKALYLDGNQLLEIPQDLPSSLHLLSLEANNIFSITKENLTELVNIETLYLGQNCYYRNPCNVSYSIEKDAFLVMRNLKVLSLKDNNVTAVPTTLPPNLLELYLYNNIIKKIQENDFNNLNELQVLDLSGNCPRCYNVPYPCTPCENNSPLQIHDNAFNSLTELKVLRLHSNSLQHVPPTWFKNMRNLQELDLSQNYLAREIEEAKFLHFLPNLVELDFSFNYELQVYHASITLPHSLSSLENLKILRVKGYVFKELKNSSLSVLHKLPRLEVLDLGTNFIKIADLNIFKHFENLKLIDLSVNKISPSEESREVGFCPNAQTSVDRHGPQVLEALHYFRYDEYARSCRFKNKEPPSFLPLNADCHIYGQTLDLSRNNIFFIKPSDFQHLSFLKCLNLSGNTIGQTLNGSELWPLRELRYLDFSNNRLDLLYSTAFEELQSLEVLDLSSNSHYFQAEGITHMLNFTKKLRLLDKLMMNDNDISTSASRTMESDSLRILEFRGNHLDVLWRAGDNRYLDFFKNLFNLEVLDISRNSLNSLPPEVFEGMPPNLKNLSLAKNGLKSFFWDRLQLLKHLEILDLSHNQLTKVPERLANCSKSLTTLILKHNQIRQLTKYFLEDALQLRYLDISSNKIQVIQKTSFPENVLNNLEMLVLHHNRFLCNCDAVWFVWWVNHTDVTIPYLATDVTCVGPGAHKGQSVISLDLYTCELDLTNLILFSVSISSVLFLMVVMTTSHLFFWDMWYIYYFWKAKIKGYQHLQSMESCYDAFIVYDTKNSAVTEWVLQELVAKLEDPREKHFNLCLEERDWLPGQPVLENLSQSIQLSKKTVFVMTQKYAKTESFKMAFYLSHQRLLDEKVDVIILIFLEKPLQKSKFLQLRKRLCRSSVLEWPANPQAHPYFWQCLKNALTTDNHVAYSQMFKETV
Briefly: mTLR7 antagonism (IL-6 and TNF-α release assay) in mouse splenocytes, R0006/DOTAP stimulated. Type of assay: cell-based. The conditions noted are these: 1 μM, mouse splenocytes. The source says:
mTLR9 and mTLR7 Antagonism (Cytokine Release Assay) in Mouse Splenocytes
TLR7 ligand R0006 (IDT, 5′-rU*rU*rG*rU*rU*rG*rU*rU*rG*rU*rU*rG*rU*rU*rG*rU*rU*rG*rU*rU-3′ (SEQ ID NO:1)), Liposomal transfection reagent—DOTAP (Roche, Cat. No. 11202375001), TLR9 ligand CpG ODN2006 (Sequence: T*C*G*T*C*G*T*T*T*T*G*T*C*G*T*T*T*T*G*T*C*G*T*T; *=phosphorothioate (SEQ ID NO:2)) DMSO (Sigma, D2650), RPMI Powder (Sigma, R6504), Fetal Bovine Serum (Gibco, 10270), Dulbecco's Phosphate Buffered Saline (Sigma, D1408), 96 well plate (Flat bottom, Costar 3599), ELISA kit for IL-6 (EBioscience, 88-7064-77 and TNFa (EBioscience, 88-7346-88), MACS Buffer (AutoMACS Rinsing Solution (Miltenyl Biotec, 130-091-222)+0.05% BSA), RBC lysis buffer (0.85% NH4Cl), 40 μm cell strainer (BD Falcon, 352340) Method: A. Isolation of Mouse Splenocytes
Mouse spleen was isolated from C57BL6 mouse and stored in 1× chilled PBS buffer until further processed. Spleen was transferred to a sterile petriplate and chopped in to 5-6 pieces in presence of MACS buffer (100 μl) with the help of fresh surgical blade and crushed with flat plunger of a sterile syringe. A uniform suspension was prepared by passing cells through a 40 μm cell strainer. Cells were centrifuged at 450×g for 5 minutes at 4° C., supernatant was discarded and pellet dislodged gently, resuspended in 2 ml of pre-warmed (37° C.) RBC lysis buffer at room temperature with continuous gentle mixing with 1 ml pipette. Lysis buffer was neutralized with 12 ml of chilled MACS buffer and cells were passed through 40 μm cell strainer. Cell suspension was collected in 15 ml MACS buffer and centrifuged at 450×g for 5 minutes at 4° C. Pellet was resuspended in 15 ml MACS buffer and centrifuged at 400×g for 5 minutes. Cells were resuspended in 10 ml of RPMI complete medium and viability was estimated by Trypan blue method.
mTLR7 Antagonism (IL-6 and TNF-α Release Assay):
1 mg/ml stock of R0006 was prepared in sterile, endotoxin-free water. R0006 stock was diluted 10 fold with DOTAP and incubated for 30 minutes to form liposome complex (100 μg/ml of R0006). This complex was further diluted 10 fold with incomplete RPMI media (10 μg/ml of R0006) to achieve the final agonist concentration of 1 μg/ml. DOTAP alone was diluted 10 fold in incomplete RPMI media. NCEs were added in a concentration range of 30 μM to 1 nM in respective wells of assay plate, assay medium containing 0.3% DMSO were added to control wells. 0.2 million splenocytes were added to all the wells and incubated at 37° C. in 5% CO2 incubator for 30 minutes. 1 μg/ml of respective agonist was added to all the wells except those were assigned as negative controls and mixed thoroughly. DOTAP was added to negative control wells and incubated overnight at 37° C./5% CO2. The plate was centrifuged at 450×g for 5 minutes at room temperature and the supernatant was collected. ELISA was performed as per manufacturer's protocol. S/B Ratio, % Activity and % Inhibition was calculated using MS Excel. IC50 and inhibition curve was generated using Graph Pad Prism.

[1] abbreviates: IL-6 release, read-out: mTLR7 inhibitory activity (% at 1 μM), IL-6.
Where [2] appears, read: TNF-α release, read-out: mTLR7 inhibitory activity (% at 1 μM), TNF-α.

Where two headings read alike, the source gives them in different places.

On to `Cc1cc2[nH]c(CN3CCOCC3)cc2c(-c2ccc(C3CCN(C(C)C)CC3)cc2)n1` [Example A51, 4-[[4-[4-(1-isopropyl-4-piperidyl)phenyl]-6-methyl-1H-pyrrolo[3,2-c]pyridin-2-yl]methyl]morpholine], for which the inhibition at 1 µM is, setting by setting: under setting [1], 100%; under setting [2], 96%. In the case of `Cc1nc(-c2ccc(N3CCN(C(C)C)CC3)cc2)c2cc(CN3CCOCC3)[nH]c2c1C` [Example A36, 4-[[4-[4-(4-isopropylpiperazin-1-yl)phenyl]-6,7-dimethyl-1H-pyrrolo[3,2-c]pyridin-2-yl]methyl] morpholine], the inhibition at 1 µM reads like this: under setting [1], 100%; under setting [2], 99%. On to `CC(C)N1CCN(C2CCC(c3nccc4[nH]c(CN5CCOCC5)cc34)CC2)CC1` (centres unmarked) [Example A80, 4-[[4-[4-(4-isopropylpiperazin-1-yl)cyclohexyl]-1H-pyrrolo[3,2-c]pyridin-2-yl]methyl]morpholine], for which the inhibition at 1 µM runs as follows: under setting [1], 18%; under setting [2], 16%. `Cc1cc2[nH]c(CCCN3CCCCC3)cc2c(-c2ccc(N3CCN(C(C)C)CC3)cc2)n1` [Example C5, 4-[4-(4-isopropylpiperazin-1-yl)phenyl]-6-methyl-2-[3-(1-piperidyl)propyl]-1H-pyrrolo[3,2-c]pyridine]: the inhibition at 1 µM by setting is: under setting [1], 100%; under setting [2], 97%. Consider `Cc1cc2[nH]c(CN3CCC4(CC3)CC(O)C4)cc2c(-c2ccc(N3CCN(C(C)C)CC3)cc2)n1` [Example A29, 7-[[4-[4-(4-isopropylpiperazin-1-yl)phenyl]-6-methyl-1H-pyrrolo[3,2-c]pyridin-2-yl]methyl]-7-azaspiro[3.5] nonan-2-ol], for which the inhibition at 1 µM stood at 97% under setting [1] and 82% under setting [2]. Take `Cc1cc2c(cc(CCN3CCOCC3)n2C)c(C2CCC(N3CCN(C(C)C)CC3)CC2)n1` (centres unmarked) [Example B27, 4-[2-[4-[4-(4-isopropylpiperazin-1-yl)cyclohexyl]-1,6-dimethyl-pyrrolo[3,2-c]pyridin-2-yl]ethyl]morpholine]: the “mTLR7 inhibitory activity (% at 1 μM), IL-6” value (IL-6 release) is listed as 88%. The “mTLR7 inhibitory activity (% at 1 μM), TNF-α” value (TNF-α release) was 77%. In the case of `CN1CCN(Cc2ccc(-c3nccc4[nH]c(CN5CCOCC5)cc34)cc2)CC1` [Example A60, 4-[[4-[4-[(4-methylpiperazin-1-yl)methyl]phenyl]-1H-pyrrolo[3,2-c]pyridin-2-yl]methyl]morpholine], the inhibition at 1 µM under setting [2] was found to be 29%. In the case of `CC(C)N1CCC(c2ccc(-c3nccc4[nH]c(CN5CCOCC5)cc34)cc2)CC1` [Example A70, 4-[[4-[4-(1-isopropyl-4-piperidyl)phenyl]-1H-pyrrolo[3,2-c]pyridin-2-yl]methyl]morpholine], the inhibition at 1 µM runs as follows: under setting [1], 100%; under setting [2], 36%. Take `Cc1cc2c(cc(CCN3CCOCC3)n2C)c(-c2ccc(N3CCN(C(C)C)CC3)cc2F)n1` [Example B19, 4-[2-[4-[2-fluoro-4-(4-isopropylpiperazin-1-yl)phenyl]-1,6-dimethyl-pyrrolo[3,2-c]pyridin-2-yl]ethyl]morpholine]: the inhibition at 1 µM under setting [1] worked out at 100% and the inhibition at 1 µM under setting [2] turned out to be 100%. With `CCN1CCN(c2ccc(-c3nccc4[nH]c(CN5CCOCC5)cc34)cc2)CC1` [Example A3, 4-[[4-[4-(4-ethylpiperazin-1-yl)phenyl]-1H-pyrrolo[3,2-c]pyridin-2-yl]methyl] morpholine], the inhibition at 1 µM came out at 100% under setting [1] and 100% under setting [2]. Take `Cc1nc(-c2ccc(N3CCN(C(C)C)CC3)cc2)c2cc(CN3CCCC3)[nH]c2c1C` [Example A40, 4-[4-(4-isopropylpiperazin-1-yl)phenyl]-6,7-dimethyl 2-(pyrrolidin-1-ylmethyl)-1H-pyrrolo[3,2-c)pyridine]: the inhibition at 1 µM under setting [2] stood at 100%. As to `Cc1cc2c(cc(CN3CCOCC3)n2C)c(-c2ccc(N3CCN(C(C)C)CC3)cc2)n1` [Example A35, 4-[[4-[4-(4-isopropylpiperazin-1-yl]phenyl]-1,6-dimethyl-pyrrolo[3,2-c]pyridin-2-yl]methyl] morpholine], the inhibition at 1 µM stood at 100% under setting [1] and 100% under setting [2].

Regarding `CC(C)N1CCC(Oc2ccc(-c3nccc4[nH]c(CN5CCOCC5)cc34)cc2)CC1` [Example A56, 4-[[4-[4-[(1-isopropyl-4-piperidyl)oxy]phenyl]-1H-pyrrolo[3,2-c]pyridin-2-yl]methyl]morpholine], the inhibition at 1 µM under setting [2] is 64%.

As for `Cc1cc2[nH]c(CCN3CCOCC3)cc2c(-c2ccc(N3CCN(C(C)C)CC3)cc2)n1` [Example B3, 4-[2-[4-[4-(4-isopropylpiperazin-1-yl)phenyl]-6-methyl-1H-pyrrolo[3,2-c]pyridin-2-yl]ethyl]morpholine], under setting [2], the inhibition at 1 µM stood at 100%. With `CC(C)N1CCC(n2cc(-c3nccc4[nH]c(CN5CCOCC5)cc34)cn2)CC1` [Example A54, 4-[[4-[1-(1-isopropyl-4-piperidyl)pyrazol-4-yl]-1H-pyrrolo[3,2-c]pyridin-2-yl]methyl]morpholine], under setting [2], the inhibition at 1 µM came out at 0%.

Consider `CC(C)N1CCN(c2ccc(-c3nccc4[nH]c(CN5CCC6(CC5)CC(O)C6)cc34)cc2)CC1` [Example A13, 7-[[4-[4-(4-isopropylpiperazin-1-yl)phenyl]-1H-pyrrolo[3,2-c]pyridin-2-yl]methyl]-7-azaspiro[3.5] nonan-2-ol], for which the inhibition at 1 µM reads like this: under setting [1], 98%; under setting [2], 91%. `CN1CCC(n2cc(-c3nccc4[nH]c(CN5CCOCC5)cc34)cn2)CC1` [Example A63, 4-[[4-[1-(1-methyl-4-piperidyl)pyrazol-4-yl]-1H-pyrrolo[3,2-c]pyridin-2-yl]methyl]morpholine]: the inhibition at 1 µM under setting [2] was 0%. Regarding `CN1CCC(Oc2ccc(-c3nccc4[nH]c(CN5CCOCC5)cc34)cc2)CC1` [Example A62, 4-[[4-[4-[(1-methyl-4-piperidyl)oxy]phenyl]-1H-pyrrolo[3,2-c]pyridin-2-yl]methyl]morpholine], the inhibition at 1 µM under setting [2] is 75%.
